Experimental data from US5103014A, “Certain 3,3'-[[[(2-phenyl-4-thiazolyl)methoxy]phenyl]methylene]dithiobis-propano ic acid derivatives” (American Home Products Corporation, priority 1990, dated 1992).
Where two headings read alike, the source gives them in different places.

Assays:
[1] = system: acute inflammatory response (carrageenan paw edema); assay: Rat carrageenan paw edema assay; format: in vivo; conditions: po; for inhibition in vivo at 50 mg/kg: 50 mg/kg peroral, 1 hour prior to carrageenan, edema at 3 hours
Procedure: The compounds of the invention are tested in the rat carrageenan paw edema assay to determine their ability to inhibit the acute inflammatory response. 140-180 gm male Sprague-Dawley rats, in groups of 6 animals, are injected subcutaneously in the right paw with 0.1 ml of 1% carrageenan at zero time. Mercury plethysmographic readings (ml) of the paw are made at zero time and 3 hours later. Test compounds are suspended or dissolved in 0.5% methylcellulose and given perorally 1 hour prior to carrageenan administration. The increase in paw volume (edema in ml.) produced by the carrageenan is measured. […] Unpaired Student's t-test is used to determine statistical significance.

[2] = system: LTD4 induced bronchoconstriction; assay: In vivo inhibition of LTD4 induced bronchospasm in guinea pigs (exogenously administered leukotrienes); design: species or system guinea pig; conditions: Cavia porcellus, 10 minutes before induction of bronchospasm (LTD4)
[3] = system: 5,12-diHETE synthesis by rat glycogen-elicited polymorphonuclear leukocytes; assay: Inhibition of 5,12-diHETE synthesis by rat glycogen-elicited polymorphonuclear leukocytes; format: cell-based; conditions: Leukocyte, rat PMN
Procedure: This is especially true with respect to 5,12-diHETE, which is also denoted as LTB4 [see Ford-Hitchinson, J. Roy. Soc. Med., 74, 831 (1981)]. The assay of this Example measures the ability of the compounds of the invention to inhibit the synthesis of 5,12-diHETE by rat glycogen-elicited polymorphonuclear leukocytes.
(§1) Peritoneal PMN are obtained from female Wistar rats (150-250 g) that received an i.p. injection of 6% glycogen (10 ml). After 24 hours, rats are killed by CO2 asphyxiation and peritoneal cells are harvested by peritoneal lavage using Ca^++ and Mg^++ free Hanks' balanced salt solution (HBSS). The peritoneal exudate is centrifuged at 400 g for 10 minutes. After centrifugation, the lavaged fluid is removed and the cell pellet is resuspended in HBSS containing Ca^++ and Mg^++ and 10 mM L-cysteine at a concentration of 2×10^7 cells/ml. To 1 ml portions of cell suspension, test drugs or vehicle are added and incubated at 37° C. for 10 minutes. Following this preincubation, the calcium ionophore (10 μM), A23187, is added together with 0.5 μCi [^14 C] arachidonic acid and further incubated for 10 minutes. The reaction is stopped by the addition of ice cold water (3 ml) and acidification to pH 3.5. Lipoxygenase products are then extracted twice into diethyl ether. The pooled ether extracts are evaporated to dryness under nitrogen and the residue is redissolved in a small volume of methanol and spotted on aluminum backed pre-coated thin layer chromatographic plates. The samples are then co-chromatographed with authentic reference 5,12-diHETE in the solvent system-hexane:ether:acetic acid (50:50:3). After chromatography, the areas associated with 5,12-diHETE standard are identified by autoradiography, cut out and quantitated by liquid scintillation.
Results are expressed as the 50% Inhibitory concentration, or as percent inhibition at a given.

[4] = system: TxB2 synthesis (cyclooxygenase); assay: Inhibition of synthesis of cyclooxygenase oxidation product TxB2 (rat polymorphonuclear leukocytes); format: cell-based; conditions: Leukocyte, rat PMN
Procedure: as §1
The procedure of Example 17 is also employed for the determination of the ability of the compounds of the invention to inhibit the synthesis of the arachidonic acid cyclooxygenase oxidation product TxB2.
In this assay, the procedure of Example 17 is carried out as described. However, in order to determine cyclooxygenase activity, the samples are cochromatographed with authentic reference TxB2 in the solvent system ethyl acetate:formic acid (80:1) and the upper phase of ethyl acetate:isoctane:acetic acid:water (110:50:20:100). After chromatography, the areas associated with TxB2 standard are identified by autoradiography, cut out and quantitated by liquid scintillation techniques.
The results are calculated as in Example 12 and presented below: […]

[5] = target: T1, LTD4 (contraction of isolated guinea pig trachea) (Cavia porcellus, UniProt Q2NNR5); assay: Isolated guinea pig trachea assay, LTD4 antagonist activity; format: cell-based; conditions: read-out: pKB ± S.E. (converted)
T1 construct: from tissue; host or cells: isolated tracheal rings of male Hartley guinea pigs
T1 sequence (Q2NNR5 1-340): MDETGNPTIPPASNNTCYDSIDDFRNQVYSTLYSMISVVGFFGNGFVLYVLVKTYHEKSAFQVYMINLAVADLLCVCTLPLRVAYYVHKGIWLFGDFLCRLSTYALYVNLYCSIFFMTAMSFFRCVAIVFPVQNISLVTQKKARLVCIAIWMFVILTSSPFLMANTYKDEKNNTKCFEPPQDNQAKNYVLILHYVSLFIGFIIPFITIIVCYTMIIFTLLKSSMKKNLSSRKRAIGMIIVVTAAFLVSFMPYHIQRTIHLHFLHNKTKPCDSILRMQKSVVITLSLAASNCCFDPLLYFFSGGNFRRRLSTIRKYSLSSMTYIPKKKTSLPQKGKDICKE
Procedure: The compounds of the invention are tested in the isolated guinea pig trachea assay to assess their LTD4 antagonist activity. Male Hartley guinea pigs (350-400 g) are euthanized by a blow to the head, the neck is opened and the trachea removed. The trachea is maintained in aerated physiological salt solution, cleared of connective tissue and fat and cut into rings approximately 2 mm in width (usually containing two cartilaginous segments per ring). Two pieces of silk suture are then passed through the lumen of the tracheal ring and are tied around the cartilage, one on each side of the trachealis muscle. The tracheal ring is suspended between a glass hook and a force displacement transducer in a 10 ml organ bath for measurement of isometric tension. Tissues are maintained at 37° C. in aerated (95% O2 /5% CO2) physiological salt solution of the following composition: […] The tracheal rings are maintained at 2 g resting tension and equilibrated for 45 minutes (with frequent washing and readjustment of resting tension). The tracheal rings are first contracted by the addition of carbachol (3×10^-6 M), to determine tissue responsiveness and establish a reference contraction. On attainment of a stable level of contraction (approximately 30 minutes), the tissues are washed several times until baseline tension has been restored and then re-equilibrated for 30 minutes. The tissues are then incubated for 45 minutes with a test antagonist (either 1×10^-6 M or 1×10^-5 M) or 10 μl of an appropriate solvent control (control, non-treated). One tissue in each group serves as the control. Twenty minutes prior to the construction of the LTD4 cumulative concentration-response curve, L-[…]×10^-2 M final bath concentration) is added to inhibit bioconversion of LTD4 to LTE4. Only one LTD4 concentration-response curve is constructed in each tissue. All responses to LTD4 are calculated as a percentage of the reference contraction to carbachol. LTD4 antagonist activity is determined by comparison of the concentration response curves of LTD4 in the presence and absence of antagonist. Assessment of the relative rightward shift of the antagonist treated curve relative to the solvent (control) treated tissue is calculated as a concentration ratio (Eq. A) and used in subsequent calculations to derive an antagonist pKB value (Eqs B&C). In the event that the maximum response to LTD4 is depressed, the EC50 for that particular curve is determined, an "apparent" pKB reported, and the compound reported as "not-competitive."

[6] = A23187 10 μM, read-out: 50% Inhibitory Concentration (IC50)
[7] = antagonist concentration 1 × 10^-5 M
[8] = antagonist concentration 1 × 10^-6 M

SMILES | inhibition in vivo at 50 mg/kg [1] [%] | inhibition in vivo at 25 mg/kg ([2]; intraduodenal, intraduodenally) [%] | also measured
COc1ccc(-c2nc(COc3cccc(NS(=O)(=O)C(F)(F)F)c3)c(C)o2)cc1 [Example 1, 1,1,1-Trifluoro-N-[3-[[2-(4-methoxyphenyl)-5-methyl-4-oxazolyl]methoxy]phenyl]methanesulfonamide] | 34 | 24 | 
Cc1oc(-c2ccccc2)nc1COc1cccc(NS(=O)(=O)C(F)(F)F)c1 [Example 2, 1,1,1-Trifluoro-N-[3-[(5-methyl-2-phenyl-4-oxazolyl)methoxy]phenyl]methanesulfonamide] | 18 | 56 | 
O=S(=O)(Nc1ccccc1OCc1csc(-c2ccccc2)n1)C(F)(F)F [Example 4, 1,1,1-Trifluoro-N-[2-[(2-phenyl-4-thiazolyl)methoxy]phenyl]methanesulfonamide] |  | 10 | 
c1ccc(-c2nc(COc3cccc(Cc4nnn[nH]4)c3)cs2)cc1 [Example 5, 5-[[3-(2-Phenyl-4-thiazolylmethoxy)phenyl]methyl]-1H-tetrazole] |  | 69 | 
CCN(CC)C(=O)N(C)CC(O)c1cccc(OCc2csc(-c3ccccc3)n2)c1 (stereo not shown) [Example 6, N,N-Diethyl-N'-[2-hydroxy-2-[3-(2-phenyl-4-thiazolylmethoxy)phenyl]ethyl]-N-methylurea] | 57 | 47 | 
O=S(=O)(Nc1cccc(OCc2cccc(-c3ccccc3)n2)c1)C(F)(F)F [Example 7, 1,1,1-Trifluoro-N-[3-[(2-phenyl-6-pyridinyl)methoxy]phenyl]methanesulfonamide] |  | 68 | 
Cc1ccc(S(=O)(=O)NC(=O)c2cccc(OCc3csc(-c4ccccc4)n3)c2)cc1 [Example 8, N-[(4-Methylphenyl)sulfonyl]-3-[(2-phenyl-4-thiazolyl)methoxy]benzamide] | 51 | 62 | inhibition at 10 µM ([3]; 10 μM): 55%; inhibition at 10 µM ([4]; 10 μM): 44%
O=S(=O)(Nc1cccc(OCc2csc(-c3ccc(Cl)cc3)n2)c1)C(F)(F)F [Example 9A, 1,1,1-Trifluoro-N-[3-[[2-(4-chlorophenyl)-4-thiazolyl]methoxy]phenyl]methanesulfonamide] | 60 | 54 | IC50 [3, 6]: 5200 nM; IC50 [4, 6]: 7100 nM
O=S(=O)(Nc1cccc(OCc2csc(-c3ccccc3F)n2)c1)C(F)(F)F [Example 9C, 1,1,1-Trifluoro-N-[3-[[2-(2-fluorophenyl)-4-thiazolyl]methoxy]phenyl]methanesulfonamide] | 53 | 73 | inhibition in vivo at 10 mg/kg ([2]; po, 10 mg/kg, intragastrically): 89%
O=S(=O)(Nc1cccc(OCc2csc(-c3c(F)cccc3F)n2)c1)C(F)(F)F [Example 9D, 1,1,1-Trifluoro-N-[3-[[2-(2,6-difluorophenyl)-4-thiazolyl]methoxy]phenyl]methanesulfonamide] | 37 | 72 | 
O=S(=O)(Nc1cccc(OCc2csc(-c3ccc(C(F)(F)F)cc3)n2)c1)C(F)(F)F [Example 9E, 1,1,1-Trifluoro-N-[3-[[2-(4-trifluoromethylphenyl)-4-thiazolyl]methoxy]phenyl]-methanesulfonamide] | 66 |  | 
O=S(=O)(Nc1cccc(OCc2csc(-c3cccc(C(F)(F)F)c3)n2)c1)C(F)(F)F [Example 9F, 1,1,1-Trifluoro-N-[3-[[2-(3-trifluoromethylphenyl)-4-thiazolyl]methoxy]phenyl]methanesulfonamide] | 23 | 50 | 
O=S(=O)(Nc1cccc(OCc2csc(Cc3ccccc3)n2)c1)C(F)(F)F [Example 9I, 1,1,1-Trifluoro-N-[3-[[2-(benzyl)-4-thiazolyl]methoxy]phenyl]methanesulfonamide] | 22 | 94 | inhibition in vivo at 25 mg/kg ([2]; po, intragastrically): 47%
COC(=O)CCSC(SCCC(=O)OC)c1cccc(OCc2csc(-c3ccccc3)n2)c1 [Example 12] |  |  | Kb [5, 7]: 724 nM
COC(=O)CCSC(SCCC(=O)N(C)C)c1cccc(OCc2csc(-c3ccccc3)n2)c1 (stereo not shown) [Example 13, 3-[[[[3-(Dimethylamino)-3-oxopropyl]thio][[(2-phenyl-4-thiazolyl)methoxy]phenyl]methyl]thio]propanoic acid methyl ester] |  |  | Kb [5, 8]: 44.7 nM
CN(C)C(=O)CCSC(SCCC(=O)N(C)C)c1cccc(OCc2csc(-c3ccccc3)n2)c1 [Example 14, 3,3'-[[[3-[(2-Phenyl-4-thiazolyl)methoxy]phenyl]methylene]dithio]bis[N,N-dimethylpropanamide]] |  |  | Kb [5, 8]: 324 nM
O=C(O)CCSC(SCCC(=O)O)c1cccc(OCc2csc(-c3ccccc3)n2)c1 [Example 15, 3,3'-[[3-[(2-Phenyl-4-thiazolyl)methoxy]phenyl]methylene]dithiobis[propanoic acid]] |  |  | Kb [5, 7]: 912 nM
CN(C)C(=O)CCSC(SCCC(=O)O)c1cccc(OCc2csc(-c3ccccc3)n2)c1 (stereo not shown) [Example 16, 3-[[[[3-(Dimethylamino)-3-oxopropyl]thio][3-[(2-phenyl-4-thiazolyl)methoxy]phenyl]methyl]thio]propanoic acid] |  |  | Kb [5, 8]: 72.4 nM
COc1ccc2c(c1)c(CC(=O)O)c(C)n2C(=O)c1ccc(Cl)cc1 [Indomethacin, reference compound] |  |  | ED50 ([1]; 3 h, read-out: Oral ED50 (95% C.L.)): 3.7 mg/kg
